# Data published in ChEMBL document CHEMBL1795227, “Methanesulfonamido-cyclohexylamine derivatives of 2,4-diaminopyrimidine as potent ALK inhibitors” (Bioorg Med Chem Lett, 2011).
# Calls of active or inactive are those of the source. No cut-off for these calls is given here.
# Key:
# [1] = Plasma concentration in Karpas-299 cells xenografted mouse at 30 mg/kg, po administered as single dose measured after 12 hrs; type: ADME, organism-based; parameters: dose 30 mg/kg, route oral
# [2] = target: T1, ALK tyrosine kinase receptor (Homo sapiens, UniProt Q9UM73); details: 1 uM
# Description: Inhibition of ALK at 1 uM
# [3] = Drug level in tumor of Karpas-299 cells xenografted mouse at 30 mg/kg, po administered as single dose measured after 6 hrs; type: ADME, organism-based, Neoplasm; parameters: dose 30 mg/kg, route oral; details: read-out: Drug uptake
# [4] = test system: Mus musculus; assay: Toxicity in mouse assessed as overt signs at 30 mg/kg, po bid; type: organism-based; parameters: dose 30 mg/kg, route oral; details: in vivo
# [5] = Oral bioavailability in CD1 mouse at 10 mg/kg; type: ADME, organism-based; details: in vivo
# [6] = target: TGF-beta receptor type-1 (Homo sapiens) (UniProt P36897); assay: Inhibition of TGFBR1 at 1 uM
# [7] = AUC (0 to t) in Sprague-Dawley rat at 5 mg/kg, po; type: ADME, organism-based; parameters: dose 5 mg/kg, route oral; details: plasma
# [8] = target: 3-phosphoinositide-dependent protein kinase 1 (Homo sapiens) (UniProt O15530); assay: Inhibition of PDPK1 at 1 uM
# [9] = target: Insulin receptor (Homo sapiens, UniProt P06213); assay: Inhibition of IR
# [10] = Cmax in CD1 mouse at 10 mg/kg, po; type: ADME, organism-based; parameters: dose 10 mg/kg, route oral; details: in vivo
# [11] = target: Angiopoietin-1 receptor (Homo sapiens) (UniProt Q02763); assay: Inhibition of Tie2 at 1 uM
# [12] = Half life in CD1 mouse at 1 mg/kg, iv; type: ADME, organism-based; parameters: dose 1 mg/kg, route intravenous; details: in vivo
# [13] = test system: Mus musculus; assay: Toxicity in mouse assessed as overt signs at 55 mg/kg, po bid; type: organism-based; parameters: dose 55 mg/kg, route oral; details: in vivo
# [14] = target: Non-receptor tyrosine-protein kinase TYK2 (Homo sapiens) (UniProt P29597); assay: Inhibition of TYK2 domain 2 at 1 uM
# [15] = target: Fibroblast growth factor receptor 3 (Homo sapiens) (UniProt P22607); details: 1 uM
# Description: Inhibition of FGFR3 at 1 uM
# [16] = AUC (0 to t) in CD1 mouse at 1 mg/kg, iv; type: ADME, organism-based; parameters: dose 1 mg/kg, route intravenous; details: plasma
# [17] = test system: Mus musculus; assay: Toxicity in mouse assessed as body weight loss at 55 mg/kg, po bid; type: organism-based; parameters: dose 55 mg/kg, route oral; details: in vivo
# [18] = Clearance in CD1 mouse at 1 mg/kg, iv; type: ADME, organism-based; parameters: dose 1 mg/kg, route intravenous; details: in vivo
# [19] = test system: Mus musculus; assay: Inhibition of NPM-ALK autophosphorylation in Karpas-299 cells xenografted mouse at 30 mg/kg, po administered as single dose measured after 2 hrs; type: functional; details: KARPAS-299, 2 h
# [20] = target: Protein kinase C eta type (Homo sapiens) (UniProt P24723); assay: Inhibition of PRKCH at 1 uM
# [21] = target: Insulin-like growth factor 1 receptor (Homo sapiens) (UniProt P08069); assay: Inhibition of IGF1R at 1 uM
# [22] = Volume of distribution in Sprague-Dawley rat at 1 mg/kg, iv; type: ADME, organism-based; parameters: dose 1 mg/kg, route intravenous; details: in vivo
# [23] = Volume of distribution in CD1 mouse at 1 mg/kg, iv; type: ADME, organism-based; parameters: dose 1 mg/kg, route intravenous; details: in vivo
# [24] = target: High affinity nerve growth factor receptor (Homo sapiens) (UniProt P04629); assay: Inhibition of TRKA at 1 uM
# [25] = AUC (0 to t) in CD1 mouse at 10 mg/kg, po; type: ADME, organism-based; parameters: dose 10 mg/kg, route oral; details: plasma
# [26] = Cmax in Sprague-Dawley rat at 5 mg/kg, po; type: ADME, organism-based; parameters: dose 5 mg/kg, route oral; details: in vivo
# [27] = target: T1, ALK tyrosine kinase receptor; assay: Inhibition of ALK
# [28] = Half life in CD1 mouse at 10 mg/kg, po; type: ADME, organism-based; parameters: dose 10 mg/kg, route oral; details: in vivo
# [29] = test system: KARPAS-299; assay: Antitumor activity against human KARPAS299 cells xenografted in mouse assessed as tumor growth inhibition at 30 mg/kg, po bid; type: functional; details: read-out: GI
# [30] = target: Aurora kinase B (Homo sapiens) (UniProt Q96GD4); assay: Inhibition of AURKB at 1 uM
# [31] = Tmax in CD1 mouse at 10 mg/kg, po; type: ADME, organism-based; parameters: dose 10 mg/kg, route oral; details: in vivo
# [32] = Oral bioavailability in Sprague-Dawley rat at 5 mg/kg; type: ADME, organism-based; details: in vivo
# [33] = test system: Mus musculus; assay: Toxicity in mouse assessed as body weight loss at 30 mg/kg, po bid; type: organism-based; parameters: dose 30 mg/kg, route oral; details: in vivo
# [34] = test system: KARPAS-299; assay: Antitumor activity against human KARPAS299 cells xenografted in mouse assessed as tumor growth inhibition at 55 mg/kg, po bid; type: functional; details: read-out: GI
# [35] = Drug level in tumor of Karpas-299 cells xenografted mouse at 30 mg/kg, po administered as single dose measured after 12 hrs; type: ADME, organism-based, Neoplasm; parameters: dose 30 mg/kg, route oral; details: read-out: Drug uptake
# [36] = target: Tyrosine-protein kinase SYK (Homo sapiens) (UniProt P43405); assay: Inhibition of SYK at 1 uM
# [37] = target: Hepatocyte growth factor receptor (Homo sapiens) (UniProt P08581); assay: Inhibition of MET at 1 uM
# [38] = Plasma concentration in Karpas-299 cells xenografted mouse at 30 mg/kg, po administered as single dose measured after 6 hrs; type: ADME, organism-based; parameters: dose 30 mg/kg, route oral
# [39] = AUC (0 to t) in Sprague-Dawley rat at 1 mg/kg, iv; type: ADME, organism-based; parameters: dose 1 mg/kg, route intravenous; details: plasma
# [40] = Plasma concentration in Karpas-299 cells xenografted mouse at 30 mg/kg, po administered as single dose measured after 2 hrs; type: ADME, organism-based; parameters: dose 30 mg/kg, route oral
# [41] = target: Tyrosine-protein kinase ZAP-70 (Homo sapiens) (UniProt P43403); assay: Inhibition of ZAP70 at 1 uM
# [42] = test system: Mus musculus; assay: Inhibition of NPM-ALK autophosphorylation in Karpas-299 cells xenografted mouse at 30 mg/kg, po administered as single dose measured after 6 hrs; type: functional, organism-based; parameters: dose 30 mg/kg
# [43] = Clearance in Sprague-Dawley rat at 1 mg/kg, iv; type: ADME, organism-based; parameters: dose 1 mg/kg, route intravenous; details: in vivo
# [44] = test system: Mast/stem cell growth factor receptor Kit (Homo sapiens), P10721 [D816V]; details: 1 uM
# Description: Inhibition of KIT D816V at 1 uM
# [45] = Drug level in tumor of Karpas-299 cells xenografted mouse at 30 mg/kg, po administered as single dose measured after 2 hrs; type: ADME, organism-based, Neoplasm; parameters: dose 30 mg/kg, route oral; details: read-out: Drug uptake
# [46] = target: Fibroblast growth factor receptor 1 (Homo sapiens) (UniProt P11362); assay: Inhibition of FGFR1 at 1 uM
# [47] = Tmax in Sprague-Dawley rat at 5 mg/kg, po; type: ADME, organism-based; parameters: dose 5 mg/kg, route oral; details: in vivo
# [48] = target: Mitogen-activated protein kinase 8 (Homo sapiens) (UniProt P45983); assay: Inhibition of JNK1 at 1 uM
# [49] = Half life in Sprague-Dawley rat at 1 mg/kg, iv; type: ADME, organism-based; parameters: dose 1 mg/kg, route intravenous; details: in vivo
# Sequence of TGF-beta receptor type-1 (Homo sapiens) (P36897 whole entry): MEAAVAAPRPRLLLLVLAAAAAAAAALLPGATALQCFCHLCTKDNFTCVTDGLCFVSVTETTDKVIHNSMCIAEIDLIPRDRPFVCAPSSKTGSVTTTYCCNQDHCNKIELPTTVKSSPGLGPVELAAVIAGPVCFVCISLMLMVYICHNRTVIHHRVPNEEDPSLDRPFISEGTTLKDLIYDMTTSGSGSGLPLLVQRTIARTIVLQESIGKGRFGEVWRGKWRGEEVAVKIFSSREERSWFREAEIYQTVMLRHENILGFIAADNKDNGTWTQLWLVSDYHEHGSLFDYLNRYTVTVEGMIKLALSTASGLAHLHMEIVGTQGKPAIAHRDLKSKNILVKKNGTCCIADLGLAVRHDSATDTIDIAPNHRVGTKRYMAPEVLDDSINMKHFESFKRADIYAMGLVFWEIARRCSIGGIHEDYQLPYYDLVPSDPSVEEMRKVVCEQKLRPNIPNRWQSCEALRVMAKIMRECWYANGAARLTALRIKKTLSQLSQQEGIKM
# Sequence of High affinity nerve growth factor receptor (Homo sapiens) (P04629 33-796 limits assumed): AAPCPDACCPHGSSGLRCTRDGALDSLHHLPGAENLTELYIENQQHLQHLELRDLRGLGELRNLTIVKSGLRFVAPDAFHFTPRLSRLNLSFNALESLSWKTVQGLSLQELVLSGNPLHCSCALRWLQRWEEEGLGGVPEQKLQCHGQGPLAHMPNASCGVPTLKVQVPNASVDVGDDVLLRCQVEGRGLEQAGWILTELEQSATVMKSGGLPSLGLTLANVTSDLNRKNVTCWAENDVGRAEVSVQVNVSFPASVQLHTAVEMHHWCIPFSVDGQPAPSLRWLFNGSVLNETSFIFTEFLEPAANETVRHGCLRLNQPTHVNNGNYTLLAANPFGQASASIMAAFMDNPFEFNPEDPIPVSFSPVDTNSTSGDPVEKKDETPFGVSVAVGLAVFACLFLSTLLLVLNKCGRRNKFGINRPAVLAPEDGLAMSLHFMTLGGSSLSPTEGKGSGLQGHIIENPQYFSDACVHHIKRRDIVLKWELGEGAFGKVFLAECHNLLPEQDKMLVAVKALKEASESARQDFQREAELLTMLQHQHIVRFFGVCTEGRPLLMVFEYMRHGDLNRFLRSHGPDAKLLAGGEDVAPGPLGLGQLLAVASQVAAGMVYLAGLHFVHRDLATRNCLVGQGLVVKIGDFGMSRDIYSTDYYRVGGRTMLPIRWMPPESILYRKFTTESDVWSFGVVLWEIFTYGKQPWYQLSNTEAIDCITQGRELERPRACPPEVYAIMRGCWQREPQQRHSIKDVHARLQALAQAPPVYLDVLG
# Sequence of Hepatocyte growth factor receptor (Homo sapiens) (P08581 whole entry): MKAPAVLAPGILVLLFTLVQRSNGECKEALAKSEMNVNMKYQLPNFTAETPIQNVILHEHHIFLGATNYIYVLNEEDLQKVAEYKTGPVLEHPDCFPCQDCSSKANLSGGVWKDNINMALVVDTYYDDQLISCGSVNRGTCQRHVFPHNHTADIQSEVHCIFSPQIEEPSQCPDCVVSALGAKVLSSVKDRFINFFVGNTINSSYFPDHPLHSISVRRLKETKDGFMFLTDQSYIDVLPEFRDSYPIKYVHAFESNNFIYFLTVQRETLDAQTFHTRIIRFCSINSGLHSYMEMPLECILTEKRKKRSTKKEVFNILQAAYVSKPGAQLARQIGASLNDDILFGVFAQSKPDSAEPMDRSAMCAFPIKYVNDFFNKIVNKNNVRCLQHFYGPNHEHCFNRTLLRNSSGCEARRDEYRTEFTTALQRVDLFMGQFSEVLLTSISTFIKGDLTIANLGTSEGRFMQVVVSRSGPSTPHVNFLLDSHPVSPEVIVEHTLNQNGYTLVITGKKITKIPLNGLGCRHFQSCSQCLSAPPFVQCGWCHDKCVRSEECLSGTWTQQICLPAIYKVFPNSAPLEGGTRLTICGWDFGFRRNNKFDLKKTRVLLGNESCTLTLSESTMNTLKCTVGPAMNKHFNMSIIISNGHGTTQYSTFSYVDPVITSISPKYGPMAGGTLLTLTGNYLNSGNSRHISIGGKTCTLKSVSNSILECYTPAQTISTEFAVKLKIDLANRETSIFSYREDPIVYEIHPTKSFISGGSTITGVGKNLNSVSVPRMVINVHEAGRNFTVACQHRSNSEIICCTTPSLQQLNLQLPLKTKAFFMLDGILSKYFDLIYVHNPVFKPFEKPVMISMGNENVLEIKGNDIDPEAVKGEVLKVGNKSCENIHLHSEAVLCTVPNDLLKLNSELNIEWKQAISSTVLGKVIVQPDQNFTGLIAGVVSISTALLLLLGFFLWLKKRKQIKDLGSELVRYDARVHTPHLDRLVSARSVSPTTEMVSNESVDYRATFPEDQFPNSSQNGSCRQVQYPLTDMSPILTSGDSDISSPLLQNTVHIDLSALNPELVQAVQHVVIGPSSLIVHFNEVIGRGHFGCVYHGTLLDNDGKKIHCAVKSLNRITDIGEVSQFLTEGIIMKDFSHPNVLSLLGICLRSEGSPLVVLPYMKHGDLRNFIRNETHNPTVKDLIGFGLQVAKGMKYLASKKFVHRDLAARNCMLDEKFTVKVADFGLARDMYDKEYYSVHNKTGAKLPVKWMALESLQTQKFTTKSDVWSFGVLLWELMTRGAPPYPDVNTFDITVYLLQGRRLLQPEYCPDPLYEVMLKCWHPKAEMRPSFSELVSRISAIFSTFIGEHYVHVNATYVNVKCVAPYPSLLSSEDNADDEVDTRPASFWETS
# Sequence of Insulin receptor (P06213 28-758 limits assumed): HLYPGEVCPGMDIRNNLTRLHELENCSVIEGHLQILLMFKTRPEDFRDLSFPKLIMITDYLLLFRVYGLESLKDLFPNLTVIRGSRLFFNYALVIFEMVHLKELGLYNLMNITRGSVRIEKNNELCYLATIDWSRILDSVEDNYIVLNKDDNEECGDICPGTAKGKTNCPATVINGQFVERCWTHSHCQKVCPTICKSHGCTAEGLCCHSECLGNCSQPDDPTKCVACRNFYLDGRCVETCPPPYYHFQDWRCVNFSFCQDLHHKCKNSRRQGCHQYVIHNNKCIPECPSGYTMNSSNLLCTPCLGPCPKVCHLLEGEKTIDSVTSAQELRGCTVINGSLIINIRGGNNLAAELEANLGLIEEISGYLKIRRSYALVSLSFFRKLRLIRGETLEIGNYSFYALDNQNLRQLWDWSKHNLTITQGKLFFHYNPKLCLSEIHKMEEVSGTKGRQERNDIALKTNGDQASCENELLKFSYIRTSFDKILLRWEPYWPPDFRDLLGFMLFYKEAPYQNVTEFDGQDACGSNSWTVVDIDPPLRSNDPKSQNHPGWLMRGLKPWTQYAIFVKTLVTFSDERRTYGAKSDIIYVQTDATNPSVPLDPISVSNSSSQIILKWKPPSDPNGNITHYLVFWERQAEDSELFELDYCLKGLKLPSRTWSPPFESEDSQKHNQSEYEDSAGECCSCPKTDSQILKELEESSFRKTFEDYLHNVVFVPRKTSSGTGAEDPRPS
# Sequence of Insulin receptor (P06213 763-1382 limits assumed): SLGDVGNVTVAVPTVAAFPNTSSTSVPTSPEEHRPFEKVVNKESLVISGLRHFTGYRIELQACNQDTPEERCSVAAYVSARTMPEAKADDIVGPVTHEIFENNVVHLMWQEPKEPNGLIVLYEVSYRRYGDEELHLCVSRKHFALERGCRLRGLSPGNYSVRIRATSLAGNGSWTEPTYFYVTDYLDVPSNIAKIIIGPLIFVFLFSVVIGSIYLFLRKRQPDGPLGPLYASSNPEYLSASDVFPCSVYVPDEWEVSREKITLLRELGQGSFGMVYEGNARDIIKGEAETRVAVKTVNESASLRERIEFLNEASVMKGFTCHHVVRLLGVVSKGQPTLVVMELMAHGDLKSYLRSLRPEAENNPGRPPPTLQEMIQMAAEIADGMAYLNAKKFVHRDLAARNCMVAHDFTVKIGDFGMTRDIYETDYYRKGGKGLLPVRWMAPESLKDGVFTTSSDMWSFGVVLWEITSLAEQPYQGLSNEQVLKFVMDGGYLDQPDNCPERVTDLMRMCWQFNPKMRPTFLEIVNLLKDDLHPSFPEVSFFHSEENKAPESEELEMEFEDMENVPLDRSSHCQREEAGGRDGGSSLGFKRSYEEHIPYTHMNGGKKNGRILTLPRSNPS
# Sequence of 3-phosphoinositide-dependent protein kinase 1 (Homo sapiens) (O15530 whole entry): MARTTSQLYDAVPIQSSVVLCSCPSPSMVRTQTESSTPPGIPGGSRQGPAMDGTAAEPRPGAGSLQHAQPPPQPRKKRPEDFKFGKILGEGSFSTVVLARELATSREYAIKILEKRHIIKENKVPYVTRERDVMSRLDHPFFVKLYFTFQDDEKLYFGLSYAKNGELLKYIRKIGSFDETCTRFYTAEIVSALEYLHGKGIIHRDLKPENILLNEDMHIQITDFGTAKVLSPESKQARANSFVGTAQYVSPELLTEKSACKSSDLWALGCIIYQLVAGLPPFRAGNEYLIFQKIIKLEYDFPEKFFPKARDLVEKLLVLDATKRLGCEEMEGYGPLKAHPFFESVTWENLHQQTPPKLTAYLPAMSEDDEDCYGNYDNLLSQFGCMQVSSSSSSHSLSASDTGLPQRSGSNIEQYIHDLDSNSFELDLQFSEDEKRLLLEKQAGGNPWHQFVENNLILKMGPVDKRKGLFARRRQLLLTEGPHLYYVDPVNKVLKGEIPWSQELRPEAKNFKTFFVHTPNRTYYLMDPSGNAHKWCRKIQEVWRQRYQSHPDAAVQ
# Sequence of Aurora kinase B (Homo sapiens) (Q96GD4 whole entry): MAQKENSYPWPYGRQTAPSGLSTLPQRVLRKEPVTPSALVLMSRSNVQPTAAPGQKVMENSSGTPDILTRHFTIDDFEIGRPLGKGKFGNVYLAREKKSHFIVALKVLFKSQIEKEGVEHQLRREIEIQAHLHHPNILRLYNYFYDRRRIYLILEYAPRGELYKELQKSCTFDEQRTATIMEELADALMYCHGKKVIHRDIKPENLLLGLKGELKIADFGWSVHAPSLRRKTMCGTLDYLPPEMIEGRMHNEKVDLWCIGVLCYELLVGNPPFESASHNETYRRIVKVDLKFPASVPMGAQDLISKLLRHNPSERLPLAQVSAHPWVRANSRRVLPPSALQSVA
smiles,measurement,setting,value
COCCN1CCc2cc(Nc3ncc(Cl)c(N[C@@H]4CCCC[C@H]4NS(C)(=O)=O)n3)c(OC)cc2CC1,concentration at 12 h,[1],2650 ng/mL
same,inhibition,[2],97%
same,concentration at 6 h,[3],602 ng/g
same,Activity,[4],Non-toxic
same,bioavailability,[5],28%
same,inhibition,[6],< 65%
same,AUC(0-t),[7],110 ng·h/mL
same,inhibition,[8],< 65%
same,IC50,[9],1400 nM
same,Cmax,[10],2880 ng/mL
same,inhibition,[11],< 65%
same,half-life,[12],0.9 h
same,Activity,[13],Non-toxic
same,inhibition,[14],< 65%
same,inhibition,[15],< 65%
same,AUC(0-t),[16],2930 ng·h/mL
same,Activity,[17],Non-toxic
same,clearance,[18],5.6 mL/min/kg
same,inhibition in vivo at 30 mg/kg,[19],75%
same,inhibition,[20],< 65%
same,inhibition,[21],< 65%
same,Vd,[22],10.1 L/kg
same,Vd,[23],0.4 L/kg
same,inhibition,[24],< 65%
same,AUC(0-t),[25],8200 ng·h/mL
same,Cmax,[26],23 ng/mL
same,IC50,[27],6 nM
same,half-life,[28],1 h
same,inhibition in vivo at 30 mg/kg,[29],45%
same,inhibition,[30],< 65%
same,Tmax,[31],1 h
same,bioavailability,[32],24%
same,Activity,[33],Non-toxic
same,inhibition in vivo at 55 mg/kg,[34],54%
same,concentration at 12 h,[35],279 ng/g
same,inhibition,[36],< 65%
same,inhibition,[37],< 65%
same,concentration at 6 h,[38],3680 ng/mL
same,AUC(0-t),[39],72 ng·h/mL
same,concentration at 2 h,[40],2740 ng/mL
same,inhibition,[41],< 65%
same,inhibition,[42],inactive
same,clearance,[43],217 mL/min/kg
same,inhibition,[44],97%
same,concentration at 2 h,[45],695 ng/g
same,inhibition,[46],86%
same,Tmax,[47],1.8 h
same,inhibition,[48],< 65%
same,half-life,[49],0.6 h
COCCN1CCc2cc(Nc3ncc(Cl)c(N[C@@H]4CCCC[C@H]4N(C)S(C)(=O)=O)n3)c(OC)cc2CC1,inhibition,[2],100%
same,inhibition,[6],< 65%
same,inhibition,[8],< 65%
same,IC50,[9],460 nM
same,inhibition,[11],< 65%
same,inhibition,[14],< 65%
same,inhibition,[15],100%
same,inhibition,[20],79%
same,inhibition,[21],73%
same,inhibition,[24],< 65%
same,IC50,[27],3 nM
same,inhibition,[30],< 65%
same,inhibition,[36],< 65%
same,inhibition,[37],< 65%
same,inhibition,[41],< 65%
same,inhibition,[44],100%
same,inhibition,[46],100%
same,inhibition,[48],97%
